From US20250308633A1, “Methods Regarding the Treatment or Prevention of Diseases Including Cancer by Modulating Transcriptional Networks Controlling MET and EMT” (Yale University, priority 2024, published 2025)

Molecular target: T1, ESRRA (Homo sapiens, UniProt P11474)
T1 construct: endogenous in cells; host or cells: HCC38 CD44hi cells (FACS-sorted from bulk HCC38, 2D culture)
T1 sequence (P11474 1-423): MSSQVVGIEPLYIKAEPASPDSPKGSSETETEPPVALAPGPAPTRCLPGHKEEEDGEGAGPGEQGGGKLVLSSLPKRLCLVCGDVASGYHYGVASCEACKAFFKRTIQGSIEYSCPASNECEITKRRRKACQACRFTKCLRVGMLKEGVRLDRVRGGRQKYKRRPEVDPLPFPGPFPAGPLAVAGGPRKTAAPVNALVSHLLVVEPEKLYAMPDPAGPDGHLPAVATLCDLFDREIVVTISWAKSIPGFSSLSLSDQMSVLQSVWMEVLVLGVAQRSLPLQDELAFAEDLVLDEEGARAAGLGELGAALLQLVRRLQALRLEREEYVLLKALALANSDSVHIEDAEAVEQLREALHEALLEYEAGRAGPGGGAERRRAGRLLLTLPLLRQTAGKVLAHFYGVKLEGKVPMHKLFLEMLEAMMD
Assay: Western blot of CDH1 expression after ESRRA inhibitor (C14) treatment of HCC38 CD44hi cells
Assay type: cell-based
Details: 2D cultured HCC38 CD44hi cells; 5 and 10 M; 48 hours post-treatment; vs DMSO vehicle; n=3 biological replicates; p≤0.05
Procedure: In parallel, HCC38 CD44^hi cells were also treated with an ESRRA inhibitor ((2-Aminophenyl)(1-(3-isopropylphenyl)-1H-1,2,3-triazol-4-yl)methanone) (BLD Pharm, China, Cat no. BD01201330) (referred to as Compound 14 (C14) herein) at 5 and 10 M concentrations. Vehicle controls were treated with DMSO. Cells were harvested 48 hours post-treatment and processed for protein extraction which were studied for changes in ESRRA and CDH1 expression using western blot (n=3 biological replicates).
Western Blotting: Proteins were extracted from control and treated cells using ice cold modified RIPA buffer (50 mM Tris-HCl pH 7.5, 150 mM NaCl, 1 mM EDTA, 1 mM EGTA, 1% Triton X-100, 0.1% SDS with supplemented with 1× protease and phosphatase inhibitor cocktails). The lysates were sonicated using a QSONICA Q55 probe sonicator at […] for 20 seconds in an ice bath. This whole cell lysate was centrifuged at 14,000×g for 10 min at 4° C. and stored in −80° C. until further use. Proteins were quantified using the Pierce™ BCA Protein Assay Kit (Cat. 23227, Thermo Fisher Scientific, USA) as per the manufacturer's instructions. […]
Next, membranes were incubated with appropriate HRP-conjugated secondary antibodies. […] The signal intensity of the bands in western blots was quantified using Image Studio Lite version 5.2 (LI-COR Biotechnology, USA).

CDH1 expression (western blot, relative fold-change): significant increase
Structure (SMILES): CC(C)c1cccc(-n2cc(C(=O)c3ccccc3N)nn2)c1 [ESRRA antagonist, (2-Aminophenyl)(1-(3-isopropylphenyl)-1H-1,2,3-triazol-4-yl)methanone]
